Experimental data taken from patent publication US20170333391A1, “METHOD FOR DELAYING THE ONSET OF PULMONARY FIBROSIS OR TREATING PULMONARY FIBROSIS” (EVERFRONT BIOTECH INC., priority 2016, published 2017).

Assays:
Assay type in all cases: cell-based, human
[1] = test system: BMP-7 protein; assay: BMP-7 protein expression in TGF-β1-induced NHLF, western blotting (2-2); conditions: TGF-β1-only control group = 1
Procedure: Normal Human lung fibroblasts (NHLF) were seeded into 6 cm culture dishes at a density of 2×10^5 cells/dish, comprising a control group and six experimental groups (7 dishes in total). The cells were cultured until the next day, and then the mediums were removed. Each group was respectively treated under the following conditions to conduct follow-up experiments: • (1) Positive control group: cells were cultured in a FGM-2 medium containing 1% serum and TGF-β1 (5 ng/ml) for 36 hours; • (2) Group I: cells were firstly cultured in a FGM-2 medium containing 1% serum and TGF-β1 (5 ng/ml) for 12 hours, and then compound (1) was added into the medium to provide a final concentration of 15 μg/ml; thereafter, the cells were cultured for another 24 hours; • (3) Group II: cells were firstly cultured in a FGM-2 medium containing 1% serum and TGF-β1 (5 ng/ml) for 12 hours, and then compound (1) was added into the medium to provide a final concentration of 25 μg/ml; thereafter, the cells were cultured for another 24 hours; • (4) Group III: cells were firstly cultured in a FGM-2 medium containing 1% serum and TGF-β1 (5 ng/ml) for 12 hours, and then compound (1) was added into the medium to provide a final concentration of 35 μg/ml; thereafter, the cells were cultured for another 24 hours; • (5) Group IV: cells were firstly cultured in a FGM-2 medium containing 1% serum and TGF-β1 (5 ng/ml) for 12 hours, and then the Pirfenidone was added into the medium to provide a final concentration of 100 μg/ml; thereafter, the cells were cultured for another 24 hours; • (6) Group V: cells were firstly cultured in a FGM-2 medium containing 1% serum and TGF-β1 (5 ng/ml) for 12 hours, and then the Pirfenidone was added into the medium to provide a final concentration of 250 μg/ml; thereafter, the cells were cultured for another 24 hours; and • (7) Group VI: cells were firstly cultured in a FGM-2 medium containing 1% serum and TGF-β1 (5 ng/ml) for 12 hours, and then the Pirfenidone was added into the medium to provide a final concentration of 500 μg/ml; thereafter, the cells were cultured for another 24 hours.
Thereafter, the proteins in the cells of each group were extracted, and the expressions of type I collagen, BMP-7 protein and TGF-β protein in the NHLF cells of each group were measured with western blotting. The results of the control group served as the basis for calculating the relative expression levels of the other groups.

[2] = test system: α-SMA protein; assay: α-SMA protein expression in NHLF, western blotting (3-1)
Procedure: Normal Human lung fibroblasts (NHLF) were seeded into 6 cm culture dishes at a density of 2×10^5 cells/dish, comprising a control group and six experimental groups (7 dishes in total). The cells were cultured until the next day, and then the mediums were removed. Each group was respectively treated under the following conditions to conduct follow-up experiments: • (1) Control group: cells were cultured in a FGM-2 medium containing 10% serum for 36 hours; • (2) Group i: cells were cultured in a FGM-2 medium containing 1% serum for 36 hours; • (3) Group ii: cells were firstly cultured in a FGM-2 medium containing 1% serum for 12 hours, and then compound (1) was added into the medium to provide a final concentration of 15 μg/ml; thereafter, the cells were cultured for another 24 hours; • (4) Group iii: cells were firstly cultured in a FGM-2 medium containing 1% serum for 12 hours, and then compound (1) was added into the medium to provide a final concentration of 25 μg/ml; thereafter, the cells were cultured for another 24 hours; • (5) Group iv: cells were cultured in a FGM-2 medium containing 1% serum and TGF-β1 (5 ng/ml) for 36 hours; • (6) Group v: cells were firstly cultured in a FGM-2 medium containing 1% serum and TGF-β1 (5 ng/ml) for 12 hours, and then compound (1) was added into the medium to provide a final concentration of 15 μg/ml; thereafter, the cells were cultured for another 24 hours; and • (7) Group vi: cells were firstly cultured in a FGM-2 medium containing 1% serum and TGF-β1 (5 ng/ml) for 12 hours, and then compound (1) was added into the medium to provide a final concentration of 25 μg/ml; thereafter, the cells were cultured for another 24 hours.
Thereafter, the proteins in the cells of each group were extracted, and the expressions of BMP-7 protein, TGF-β protein and α-SMA protein in the NHLF cells of each group were measured with western blotting, wherein the β-actin served as the internal control. The results of the control group served as the basis for calculating the relative expression levels of the other groups.

[3] = test system: p-smad2/3 protein; assay: p-smad2/3 protein expression in TGF-β1-induced NHLF, western blotting (Example 4); conditions: uninduced control = 1, TGF-β1-only group A = 1.42
Procedure: Normal Human lung fibroblasts (NHLF) were seeded into 6 cm culture dishes at a density of 2×10^5 cells/dish, comprising a control group and five experimental groups (6 dishes in total). The cells were cultured until the next day, and then the mediums were removed. Each group was respectively treated under the following conditions to conduct follow-up experiments: • (1) Control group: cells were cultured in a FGM-2 medium containing 1% serum for 36 hours; • (2) Group A: cells were cultured in a FGM-2 medium containing 1% serum and TGF-β1 (5 ng/ml) for 36 hours; • (3) Group B: cells were firstly cultured in a FGM-2 medium containing 1% serum and TGF-β1 (5 ng/ml) for 12 hours, and then compound (1) was added into the medium to provide a final concentration of 15 μg/ml; thereafter, the cells were cultured for another 24 hours; • (4) Group C: cells were firstly cultured in a FGM-2 medium containing 1% serum and TGF-β1 (5 ng/ml) for 12 hours, and then compound (1) was added into the medium to provide a final concentration of 30 μg/ml; thereafter, the cells were cultured for another 24 hours; • (5) Group D: cells were firstly cultured in a FGM-2 medium containing 1% serum and TGF-β1 (5 ng/ml) for 12 hours, and then compound (2) was added into the medium to provide a final concentration of 100 μg/ml; thereafter, the cells were cultured for another 24 hours; and • (6) Group E: cells were firstly cultured in a FGM-2 medium containing 1% serum and TGF-β1 (5 ng/ml) for 12 hours, and then compound (2) was added into the medium to provide a final concentration of 200 μg/ml; thereafter, the cells were cultured for another 24 hours.
Thereafter, the proteins in the cells of each group were extracted, and the expressions of BMP-7 protein, TGF-β protein and p-smad2/3 protein in the NHLF cells of each group were measured with western blotting. The results of the control group served as the basis for calculating the relative expression levels of the other groups.

For `CCCC=C1OC(=O)c2ccccc21` [compound (1)], the “Relative expression level (fold) BMP-7 protein” value ([1]; Group I: TGF-β1 5 ng/ml 12 h, then compound (1) 15 μg/ml 24 h) was 1.57 fold, the “Relative expression level (fold) BMP-7 protein” value ([1]; Group II: TGF-β1 5 ng/ml 12 h, then compound (1) 25 μg/ml 24 h) was 1.80 fold and the “Relative expression level (fold) BMP-7 protein” value ([1]; Group III: TGF-β1 5 ng/ml 12 h, then compound (1) 35 μg/ml 24 h) was 1.68 fold. For the same compound, the “Relative expression level (fold) α-SMA protein” value ([2]; Group ii: 1% serum 12 h, then compound (1) 15 μg/ml 24 h, no TGF-β1, 10% serum control = 1, 1% serum group i = 0.94) was 0.95 fold, the “Relative expression level (fold) α-SMA protein” value ([2]; Group iii: 1% serum 12 h, then compound (1) 25 μg/ml 24 h, no TGF-β1, 10% serum control = 1, 1% serum group i = 0.94) was 0.89 fold and the “Relative expression level (fold) α-SMA protein” value ([2]; Group v: 1% serum + TGF-β1 5 ng/ml 12 h, then compound (1) 15 μg/ml 24 h, 10% serum control = 1, TGF-β1-only group iv = 0.89) was 0.72 fold. For the same compound, the “Relative expression level (fold) α-SMA protein” value ([2]; Group vi: 1% serum + TGF-β1 5 ng/ml 12 h, then compound (1) 25 μg/ml 24 h, 10% serum control = 1, TGF-β1-only group iv = 0.89) was 0.77 fold, the “Relative expression level (fold) p-smad2/3 protein” value ([3]; Group B: TGF-β1 5 ng/ml 12 h, then compound (1) 15 μg/ml 24 h) was 0.82 fold and the “Relative expression level (fold) p-smad2/3 protein” value ([3]; Group C: TGF-β1 5 ng/ml 12 h, then compound (1) 30 μg/ml 24 h) was 1.08 fold.
